Data: patent US12257287B2, “Glucagon-derived peptide and use thereof” (Tianjin Institute of Pharmaceutical Research Co., Ltd., priority 2018, dated 2025)
Values after ≈ are worked out from the molar mass of the structure shown. Marks after values point to notes of the source that are not given here. Numbered stars: 1 amine (or outer) side, 2 acyl side, 3 side chain; on linkers, the order of the positions; unused ones are H or OH. Square brackets hold non-standard residues; d marks the D form. Side chains are listed from the residue outwards. Peptide text beside a SMILES is read from it. * marks the point of attachment. C20 diacid = O=C(O)CCCCCCCCCCCCCCCCCCC(=O)*; γGlu = O=C(O)[C@H](CCC(=O)[*:2])N[*:1]; AEEA = NCCOCCOCC(=O)O; Aib = CC(C)(N)C(=O)O

Tests used:
[1] = Glucose tolerance test in glucose-loaded DIO mice; format: in vivo; design: AUC reduction rate (%), Table 6: concentration or dose not given beside the values; conditions: for AUC of blood glucose, Table 6: Example 4, DIO mice under glucose load, methods as in Example 3; for AUC reduction rate (%), Table 6: Example 4, compared with model control group, DIO mice under glucose load
Description: DIO mice fasted for 16 h, and 1 h after administration by subcutaneous injection, glucose solution (1 g/kg) was given intraperitoneally for glucose tolerance test. Blood glucose values were measured at 0.5, 1 and 1.5 h after glucose administration. The area under the blood glucose concentration curve (AUC) was calculated and compared with that of the model control group, and the blood glucose inhibition rate (%) was calculated.
(§1) Methods are the same as that in Example 3, the test results of effects on body weight are shown in Table 5, and the effects on blood glucose are shown in Table 6. In the table, 5 #-9 # are compound 27, compound 35, compound 54, compound 57, and compound 66, respectively.

[2] = Effect on body weight of DIO mice after 14 days' administration; format: in vivo, C57BL/6J mice; conditions: positive values indicate a decrease; for body weight change, Table 5: Example 4, DIO mice, 14 days' administration, methods as in Example 3
From the text: C57BL/6J mice (n=35), model group (n=30) were fed with H10060 high-fat diet to induce obesity (DIO), blank control group (n=5) were fed with standard diet, both for 34 weeks. One day before the first administration, the model group was randomly divided into groups according to their body weight (average body weight range 45.0-52.0 g), with 5 mice in each group, which respectively were model control group, positive control group (semaglutide), and test sample group (1 #-4 # are compound 1, compound 4, compound 6 and compound 22, respectively). The blank control group and model control group were given saline subcutaneously every day, while the positive control group and test sample group were administrated by subcutaneous injection every day for 14 days. The body weight of the animals was weighed and recorded every day, and the change rate of body weight (%) was calculated by comparing the body weight at the last administration day with the initial body weight. (initial body weight−last body weight)/initial body weight=body weight change rate (%). Calculation formula: […]
Calculated positive values indicate a decrease and negative values indicate an increase.
as §1

physchem = format: physicochemical
Description: 2 mg of the compound was weighed, dissolved in 1 ml of phosphate buffer solutions with different concentrations (10, 20 mM) and different pH values (7.5, 8.0), and centrifuged, and supernatant was taken. The peak area was measured by HPLC (chromatographic column: Aeris widepore XB-C18 3.6 mm, 4.6×150 mm; mobile phase: A: 0.05% TFA, B: 95% acetonitrile; detection wavelength: 214 nm) and compared with a corresponding sample standard solution, and the relative concentration of the test sample solution is calculated.

[3] = Short-term administration: food intake and body weight in DIO mice; format: in vivo; conditions: 30 nmol/kg once every 24 h, twice, − decrease
Description: Method: diet-induced obese mice (DIO) with an average body weight of 52.5 g were divided into model control and test groups, 5 mice in each group. The test samples were dissolved in 10 mM PBS of pH7.4, injected once every 24 h at a dose of 30 nmol/kg, and administered twice. The model group was injected with solvent. Changes in food intake and body weight at 48 hours were measured, and the change rates were calculated compared to the day before administration.

GC receptor = target: T1, GC receptor (Homo sapiens, UniProt P47871); test: GC receptor mediated cAMP production in vitro (HEK293 cells transfected with GC receptor); format: cell-based; conditions: 20 min at 37° C., read-out: GCGR (nM EC50)
T1 construct: expressed in transfected cells; host or cells: HEK293 cells
T1 sequence (P47871 26-477): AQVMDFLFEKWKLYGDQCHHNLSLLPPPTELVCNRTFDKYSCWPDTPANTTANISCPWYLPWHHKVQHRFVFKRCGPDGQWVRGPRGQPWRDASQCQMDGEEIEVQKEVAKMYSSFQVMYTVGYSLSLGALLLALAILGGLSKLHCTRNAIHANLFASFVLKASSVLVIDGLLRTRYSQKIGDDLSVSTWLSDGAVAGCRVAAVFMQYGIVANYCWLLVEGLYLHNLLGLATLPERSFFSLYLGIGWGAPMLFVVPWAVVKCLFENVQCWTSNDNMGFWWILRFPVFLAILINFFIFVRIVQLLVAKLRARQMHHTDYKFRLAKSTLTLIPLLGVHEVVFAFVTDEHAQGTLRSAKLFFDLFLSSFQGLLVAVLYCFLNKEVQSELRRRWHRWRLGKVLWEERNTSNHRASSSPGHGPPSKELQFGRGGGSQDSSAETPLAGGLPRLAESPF
From the text: The medium was removed, the cells were lysed, and cAMP values were detected referring to the detection method described for the assay kit.

[4] = Accelerated chemical stability in injection solvent system (HPLC-UV); format: physicochemical; conditions: 14 days, phosphate buffer pH 7.3 with Tween 80 and phenol, main peak area vs day 0
Description: The chemical stability of the compounds of the present invention in injection solution systems was evaluated by an accelerated stability test. Methods: an appropriate amount of compound of Example 1 was weighed, and dissolved in 10 mM pH8.5 sodium hydrogen phosphate buffer. The final pH value of the solution was adjusted to 7.3 with 0.1 N hydrochloric acid, and proper amounts of Tween 80 and phenol were added. The mixture was placed at 10° C. and 37° C. for 14 days, and detected by HPLC-UV. The main peak area was obtained by peak area normalization method, and the changes compared with day 0 were investigated. The HPLC detection method was the same as that in Example 6, and the mobile phase gradient was appropriately adjusted according to the situation of chromatographic peak separation.

[5] = pH 7.5, Solubility, pH 7.5, 10 mM phosphate buffer
[6] = pH 7.5, Solubility, pH 7.5, 20 mM phosphate buffer
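For Solubility in this document: compound added at 2 mg per mL of phosphate buffer, with the dissolved amount determined in the supernatant.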

Compound	solubility (physchem; [5]) [µg/mL]	solubility (physchem; [6]) [µg/mL]	EC50 (GC receptor) [nM]	AUC of blood glucose, Table 6 [1] [mmol·h/L]	AUC reduction rate (%), Table 6 [1]	body weight change, Table 5 [2]	further results
semaglutide [reference compound]				8.33 ± 1.09	58.1** %	16.29	AUC of blood glucose, Table 4 ([1]; DIO mice fasted 16 h, glucose 1 g/kg i.p. 1 h after s.c. administration, 0.5, 1, 1.5 h): 8.97 ± 1.27 mmol·h/L; AUC reduction rate (%), Table 4 ([1]; blood glucose inhibition rate compared with model control group, DIO mice, glucose 1 g/kg i.p.): 57.7** %; body weight change rate, Table 3 ([2]; DIO mice, subcutaneous injection every day for 14 days, (initial−last)/initial): 13.20%
HAibQGTFTSDYSKYLEEK*RAREFVEWLLEAGGPSSG-Amid (HXQGTFTSDYSKYLEEKRAREFVEWLLEAGGPSSG; HELM PEPTIDE1{H.[Aib].Q.G.T.F.T.S.D.Y.S.K.Y.L.E.E.K.R.A.R.E.F.V.E.W.L.L.E.A.G.G.P.S.S.G.[am]}|PEPTIDE2{[CCCCCCCCCCCCCCCC(=O)[*:2]].[gGlu].[gGlu]}$PEPTIDE1,PEPTIDE2,17:R3-3:R2$$$V2.0; N-terminus assumed; SMILES CCCCCCCCCCCCCCCC(=O)N[C@@H](CCC(=O)N[C@@H](CCC(=O)NCCCC[C@H](NC(=O)[C@H](CCC(=O)O)NC(=O)[C@H](CCC(=O)O)NC(=O)[C@H](CC(C)C)NC(=O)[C@H](Cc1ccc(O)cc1)NC(=O)[C@H](CCCCN)NC(=O)[C@H](CO)NC(=O)[C@H](Cc1ccc(O)cc1)NC(=O)[C@H](CC(=O)O)NC(=O)[C@H](CO)NC(=O)[C@@H](NC(=O)[C@H](Cc1ccccc1)NC(=O)[C@@H](NC(=O)CNC(=O)[C@H](CCC(N)=O)NC(=O)C(C)(C)NC(=O)[C@@H](N)Cc1c[nH]cn1)[C@@H](C)O)[C@@H](C)O)C(=O)N[C@@H](CCCNC(=N)N)C(=O)N[C@@H](C)C(=O)N[C@@H](CCCNC(=N)N)C(=O)N[C@@H](CCC(=O)O)C(=O)N[C@@H](Cc1ccccc1)C(=O)N[C@H](C(=O)N[C@@H](CCC(=O)O)C(=O)N[C@@H](Cc1c[nH]c2ccccc12)C(=O)N[C@@H](CC(C)C)C(=O)N[C@@H](CC(C)C)C(=O)N[C@@H](CCC(=O)O)C(=O)N[C@@H](C)C(=O)NCC(=O)NCC(=O)N1CCC[C@H]1C(=O)N[C@@H](CO)C(=O)N[C@@H](CO)C(=O)NCC(N)=O)C(C)C)C(=O)O)C(=O)O) [Compound 8, 32; * = -γE-γE-OC16H31]				8.11 ± 1.92	59.2** %	24.1	

Further lines, with some results ahead:

solubility (physchem; [5]) [µg/mL]	solubility (physchem; [6]) [µg/mL]	EC50 (GC receptor) [nM]	Compound	AUC of blood glucose, Table 6 [1] [mmol·h/L]	AUC reduction rate (%), Table 6 [1]	body weight change, Table 5 [2]	further results
1500 (≈ 347 µM)	1070 (≈ 247 µM)		CCCCCCCCCCCCCCCC(=O)N[C@@H](CCC(=O)N[C@@H](CCC(=O)NCCCC[C@H](NC(=O)[C@H](CCC(=O)O)NC(=O)[C@H](CCC(=O)O)NC(=O)[C@H](CC(C)C)NC(=O)[C@H](Cc1ccc(O)cc1)NC(=O)[C@H](CCCCN)NC(=O)[C@H](CO)NC(=O)[C@H](Cc1ccc(O)cc1)NC(=O)[C@H](CC(=O)O)NC(=O)[C@H](CO)NC(=O)[C@@H](NC(=O)[C@H](Cc1ccccc1)NC(=O)[C@@H](NC(=O)CNC(=O)[C@H](CCC(N)=O)NC(=O)C(C)(C)NC(=O)[C@@H](N)Cc1c[nH]cn1)[C@@H](C)O)[C@@H](C)O)C(=O)N[C@@H](CCCNC(=N)N)C(=O)N[C@@H](C)C(=O)N[C@@H](CCCNC(=N)N)C(=O)N[C@@H](CCC(=O)O)C(=O)N[C@@H](Cc1ccccc1)C(=O)N[C@H](C(=O)N[C@@H](C)C(=O)N[C@@H](Cc1c[nH]c2ccccc12)C(=O)N[C@@H](CC(C)C)C(=O)N[C@@H](CC(C)C)C(=O)N[C@@H](CCC(=O)O)C(=O)NCC(=O)NCC(=O)N1CCC[C@H]1C(=O)N[C@@H](CO)C(=O)N[C@@H](CO)C(=O)NCC(N)=O)C(C)C)C(=O)O)C(=O)O [Compound 9] (HELM PEPTIDE1{H.[Aib].Q.G.T.F.T.S.D.Y.S.K.Y.L.E.E.K.R.A.R.E.F.V.A.W.L.L.E.G.G.P.S.S.G.[am]}|PEPTIDE2{[CCCCCCCCCCCCCCCC(=O)[*:2]].[gGlu].[gGlu]}$PEPTIDE1,PEPTIDE2,17:R3-3:R2$$$V2.0)	8.71 ± 2.10	56.2** %	19.9	solubility (physchem; pH 8, Solubility, pH 8.0, 10 mM phosphate buffer): > 2000 µg/mL; solubility (physchem; pH 8, Solubility, pH 8.0, 20 mM phosphate buffer): 1760 µg/mL (≈ 407 µM)
> 2000	> 2000	0.033	CC(C)C[C@H](NC(=O)[C@H](Cc1c[nH]c2ccccc12)NC(=O)[C@H](C)NC(=O)[C@@H](NC(=O)[C@H](Cc1ccccc1)NC(=O)[C@H](CCC(=O)O)NC(=O)[C@H](CCCCN)NC(=O)[C@H](C)NC(=O)[C@H](C)NC(=O)[C@H](CCCNC(=N)N)NC(=O)[C@H](CCC(=O)O)NC(=O)[C@H](CC(=O)O)NC(=O)[C@H](CC(C)C)NC(=O)[C@H](Cc1ccc(O)cc1)NC(=O)[C@H](CCCCN)NC(=O)[C@H](CO)NC(=O)[C@H](CCCCNC(=O)COCCOCCNC(=O)COCCOCCNC(=O)CC[C@H](NC(=O)CCCCCCCCCCCCCCCCCCC(=O)O)C(=O)O)NC(=O)[C@H](CC(=O)O)NC(=O)[C@H](CO)NC(=O)[C@@H](NC(=O)[C@H](Cc1ccccc1)NC(=O)[C@@H](NC(=O)CNC(=O)[C@H](CCC(N)=O)NC(=O)C(C)(C)NC(=O)[C@@H](N)Cc1c[nH]cn1)[C@@H](C)O)[C@@H](C)O)C(C)C)C(=O)N[C@@H](CCC(=O)O)C(=O)N[C@@H](C)C(=O)NCC(=O)NCC(=O)N1CCC[C@H]1C(=O)N[C@@H](CO)C(=O)N[C@@H](CO)C(=O)NCC(N)=O [Compound 13] (H-H[Aib]QGTFTSDK([AEEA-AEEA-γGlu-C20 diacid])SKYLDERAAKEFVAWLEAGGPSSG-NH2; N-terminus assumed)				Rate of change in food intake (%) ([3]; at 48 hours vs day before administration): −67%; Body weight change ([3]; at 48 hours): -2.3 g; Change in purity % (10° C.) ([4]; 10° C.): −2.8%; Change in purity % (37° C.) ([4]; 37° C.): −6.9%
		0.193	CCCCCCCCCCCCCCCC(=O)N[C@@H](CCC(=O)N[C@@H](CCC(=O)NCCCC[C@H](NC(=O)[C@H](CC(=O)O)NC(=O)[C@H](CO)NC(=O)[C@@H](NC(=O)[C@H](Cc1ccccc1)NC(=O)[C@@H](NC(=O)CNC(=O)[C@H](CCC(N)=O)NC(=O)C(C)(C)NC(=O)[C@@H](N)Cc1c[nH]cn1)[C@@H](C)O)[C@@H](C)O)C(=O)N[C@@H](CO)C(=O)N[C@@H](CCCCN)C(=O)N[C@@H](Cc1ccc(O)cc1)C(=O)N[C@@H](CC(C)C)C(=O)N[C@@H](CCC(=O)O)C(=O)N[C@@H](CCC(=O)O)C(=O)N[C@@H](CCCNC(=N)N)C(=O)N[C@@H](C)C(=O)N[C@@H](C)C(=O)N[C@@H](CCCCN)C(=O)N[C@@H](CCC(=O)O)C(=O)N[C@@H](Cc1ccccc1)C(=O)N[C@H](C(=O)N[C@@H](CCC(=O)O)C(=O)N[C@@H](Cc1c[nH]c2ccccc12)C(=O)N[C@@H](CC(C)C)C(=O)N[C@@H](CCC(=O)O)C(=O)NCC(=O)NCC(=O)N1CCC[C@H]1C(=O)N[C@@H](CO)C(=O)N[C@@H](CO)C(=O)NCC(N)=O)C(C)C)C(=O)O)C(=O)O [Compound 5] (HELM PEPTIDE1{H.[Aib].Q.G.T.F.T.S.D.K.S.K.Y.L.E.E.R.A.A.K.E.F.V.E.W.L.E.G.G.P.S.S.G.[am]}|PEPTIDE2{[CCCCCCCCCCCCCCCC(=O)[*:2]].[gGlu].[gGlu]}$PEPTIDE1,PEPTIDE2,10:R3-3:R2$$$V2.0; N-terminus assumed)				AUC of blood glucose, Table 6 ([1]; listed as 5#): 7.12 ± 1.30 mmol·h/L; AUC reduction rate (%), Table 6 ([1]; listed as 5#): 64.2** %; body weight change, Table 5 ([2]; listed as 5#): 27.74
